Assay results: patent US20080241265A1, “Pharmaceutical Combinations Containing Lamivudine, Stavudine and Nevirapine” (priority 2005, published 2008)
Entries after “also recorded” stand apart in the source; their conditions may differ.

Test: Compatibility study of homogeneous mixtures of the active ingredients (appearance and impurities after storage)
Assay type: physicochemical
Settings: conclusion from the four-week mixture study
Excerpt: Study was designed so as to evaluate the physico-chemical parameters of these three drugs.

Row | SMILES | Compatibility with the other active ingredient
1 | Nc1ccn([C@@H]2CS[C@H](CO)O2)c(=O)n1 [Lamivudine, (2R-cis)-4-Amino-1-[2-(hydroxymethyl) 1,3-oxathiolan-5-yl]-2(1H)-pyrimidinone] | compatible with Nevirapine; also recorded: not with Stavudine
2 | Cc1cn([C@H]2C=C[C@@H](CO)O2)c(=O)[nH]c1=O [stavudine, (3′-deoxythymidin-2′-ene(3′-deoxy-2′,3′-didehydrothymidine)] | incompatible with nevirapine
